# Where two headings read alike, the source gives them in different places.
# What was measured:
# [1] = target: T1, H. pylori urease (Helicobacter pylori, UniProt P69996); test: Urease inhibition, extracted H. pylori urease (indophenol method); assay type: biochemical
# T1 construct: endogenous in cells; host or cells: H. pylori ATCC 43504; sonicated, supernatant desalted on Sephadex G-25 (crude extract)
# Protocol: For urease inhibition assays, 50 mL broth cultures (2.0 × 10^8 CFU/mL) were centrifuged (5000×g, 4 °C) to collect the bacteria, and after washing twice with phosphate-buffered saline (pH 7.4), the H. pylori precipitation was stored at –80 °C for 8 h, and then was returned to room temperature, and after addition of 3 mL of distilled water and protease inhibitors, sonication was performed for 60 s. Following centrifugation (15,000×g, 4 °C), the supernatant was desalted through Sephadex G-25 column (PD-10 columns, Amersham Pharmacia Biotech, Uppsala, Sweden). The resultant crude urease solution was added to an equal volume of glycerol and stored at 4 °C until use in the experiment.
# Urease activity was determined in the 96-well assay plate by measuring ammonia production using the indophenol method as described by Weatherburn[20]. Briefly, to each well, 50 µL of urea (10 mM) in phosphate buffer solution was added in a mixture of 25 µL (10 U) of H. pylori urease and 25 µL of the test compound, which was incubated at 37 °C for 0.5 h. Fifty µL of phenol reagent (containing 127 mM phenol and 0.168 mM sodium nitroprusside) and 50 µL of alkali reagent (containing 125 mM NaOH and 0.168 mM NaOCl) were added in turn. The resulted mixture was incubated at 37 °C for another 0.5 h for colouration developing. The increasing absorbance was measured at 630 nm after 50 min using a microplate reader (Molecular Devices, San Jose, CA). Percentage inhibitions were calculated from the following formula (Equation (1)). Experiments were performed in triplicate and AHA was used as reference drug, and the IC50 value was determined as the concentration of compound that give 50% inhibition of maximal activity. As for the urease assay of intact cells, 25 µL (10 U) of H. pylori urease was replaced by 25 µL of cell suspension (4.0 × 10^7 CFU/mL).
# [2] = target: T2, urease in intact H. pylori cell (Helicobacter pylori, UniProt P69996); test: Urease inhibition in intact H. pylori cell (indophenol method); assay type: cell-based
# T2 construct: H. pylori urease was replaced by 25 µL of cell suspension (4.0 × 10^7 CFU/mL); endogenous in cells; host or cells: intact H. pylori ATCC 43504 cells
# [3] = tested on: H. pylori; test: Minimum inhibitory concentration, broth microdilution (CLSI); assay type: cell-based, Helicobacter pylori (ATCC 43504); settings: Helicobacter pylori
# Protocol: H. pylori (ATCC 43504; […] The minimum inhibitory concentration (MIC) values were determined using the broth microdilution protocol according to the methods of the Clinical and Laboratory Standards Institute (CLSI)[21].
# [4] = target: T3, Jack bean urease (Canavalia ensiformis, UniProt P07374); test: Ligand affinity by surface plasmon resonance (SPR); assay type: binding; settings: for koff: immobilised urease, PBS pH 7.4
# T3 construct: purchased
# Protocol: The binding kinetics of selected compounds were assayed via surface plasmon resonance (SPR) using an OPEN SPR instrument (Nicoya Lifesciences, Kitchener, Canada). First, urease dissolved (50 µg/mL) in PBS buffer (1 mM KH2PO4, 155 mM NaCl, 3 mM Na2HPO4-12H2O, pH 7.4), was immobilised to a CM5 chip using a standard amine coupling procedure. Then, SPR measurements were carried out in PBS, and stock solutions were diluted in the same buffer. Data were collected with OpenSPR control software. Experiments were performed by monitoring the refractive index changes as a function of time under constant flow rate of 20 µL/min. The relative amount of inhibitor bound to the urease was determined by measuring the net increase in refractive index over time compared to control running buffer. There is an inline subtraction of reference surface during the run. This change is usually reported in response units (RU). Sensograms were processed and analysed using TraceDrawer software. The binding curves were fit to determine the equilibrium dissociation constant (KD).
# In the present paper, the pure Jack bean urease from commercial was used for this assay because of non-availability of pure H. pylori urease. […] For efficient and tight ligand binding, the rate constant koff is of particular interest, because koff has a potential to differentiate indistinguishable compounds with similar affinities.
# [5] = target: T3, Jack bean urease; test: Enzyme kinetic study (indophenol method); assay type: biochemical
# Protocol: Based on the indophenol method, the velocity of ammonia production (V) was measured in the presence of concentration gradients of urea ([S]) for every specific concentration of selected compounds ([I]). Nonlinear fitting curves to data of V and [S] were used to determine the type of enzyme inhibition based on the general kinetics equation (Equation (1)). Subsequently, the resulted fitting constants ( Km/Vmax(1+[I]/Ki) or 1/Vmax(1+[I]/Ki′) ) and [I] were linearly fitted to give kinetic parameters Ki and Ki', respectively. The experimental assay was performed against a pure urease (Jack bean urease) for the consideration of precision. (1) V=Vmax[S]/Km(1+[I]/Ki)+(1+[I]/K^′i)[S]
# Mazzei et al. confirmed that urease shared the mechanism of catalysis and inhibition regardless of the biological sources[27]^,[28]. For excluding the possible interference, a pure urease (Jack bean urease) was therefore used for kinetic assays. As an example, Figure 2 describes the preincubation-time dependence of urease inhibition by b19. The suppressed urease activity maintained at relatively constant values with the increasing preincubation time under different concentrations of b19, resulting in nearly equal IC50 values.
# Similarly, kinetic parameters ( Ki and Ki' ) and inhibition types of other compounds were also determined and are shown in Table 3.
# [6] = Cytotoxicity MTT assay, L-02; assay type: cell-based; settings: human, L-02 cells (normal hepatic cell line), 25 μg/mL
# Protocol: (§1) The stock solutions of the selected compounds (250 µg/mL, in PBS) were prepared in medium. L-02 cells and P69 cells were grown in medium (90% RPMI-1640 medium, 10% foetal bovine serum, 1% penicillin/streptomycin) and maintained at 37 °C in a humidified atmosphere containing 5% CO2, respectively. Cells were seeded in 96-well cell culture plates. On the day when seeding, the cells were exposed to 250 µg/mL of compounds and further cultured for 72 h at 37 °C. Cell proliferation was then determined using the thiazolyl blue tetrazolium bromide (MTT) assay.
# [7] = Cytotoxicity MTT assay, P69; assay type: cell-based; settings: human, P69 cells (normal prostate cell line), 25 μg/mL
# Protocol: as §1
# T3 sequence (P07374 whole entry, looked up): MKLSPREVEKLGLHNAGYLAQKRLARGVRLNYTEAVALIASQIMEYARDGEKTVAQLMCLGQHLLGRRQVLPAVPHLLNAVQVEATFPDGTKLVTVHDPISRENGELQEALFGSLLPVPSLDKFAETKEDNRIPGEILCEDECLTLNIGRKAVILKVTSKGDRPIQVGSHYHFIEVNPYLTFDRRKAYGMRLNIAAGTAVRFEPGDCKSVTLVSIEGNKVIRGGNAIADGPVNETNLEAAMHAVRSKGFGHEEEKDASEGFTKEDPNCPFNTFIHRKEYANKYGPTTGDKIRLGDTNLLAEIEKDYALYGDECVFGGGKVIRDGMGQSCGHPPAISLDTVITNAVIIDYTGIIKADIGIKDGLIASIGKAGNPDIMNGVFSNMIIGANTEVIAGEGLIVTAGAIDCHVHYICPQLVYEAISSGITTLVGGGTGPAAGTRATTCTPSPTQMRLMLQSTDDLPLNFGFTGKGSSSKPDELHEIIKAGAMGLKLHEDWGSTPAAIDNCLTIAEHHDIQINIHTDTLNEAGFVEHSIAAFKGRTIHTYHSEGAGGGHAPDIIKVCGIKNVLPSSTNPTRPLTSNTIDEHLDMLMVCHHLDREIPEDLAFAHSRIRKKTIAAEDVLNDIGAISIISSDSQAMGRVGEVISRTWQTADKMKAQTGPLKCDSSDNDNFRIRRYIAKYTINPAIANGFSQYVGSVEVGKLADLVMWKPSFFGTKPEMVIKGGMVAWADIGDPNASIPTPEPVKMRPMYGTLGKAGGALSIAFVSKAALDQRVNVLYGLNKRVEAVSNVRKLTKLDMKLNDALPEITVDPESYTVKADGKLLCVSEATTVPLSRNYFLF
# T1 sequence (P14916 whole entry): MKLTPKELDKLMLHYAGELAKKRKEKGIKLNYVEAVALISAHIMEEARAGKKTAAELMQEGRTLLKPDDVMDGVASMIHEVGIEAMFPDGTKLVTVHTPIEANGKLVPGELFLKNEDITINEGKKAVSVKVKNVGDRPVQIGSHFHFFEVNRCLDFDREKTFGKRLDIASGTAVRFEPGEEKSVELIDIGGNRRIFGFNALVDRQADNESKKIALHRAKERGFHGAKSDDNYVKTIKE
# T1 sequence (P69996 whole entry): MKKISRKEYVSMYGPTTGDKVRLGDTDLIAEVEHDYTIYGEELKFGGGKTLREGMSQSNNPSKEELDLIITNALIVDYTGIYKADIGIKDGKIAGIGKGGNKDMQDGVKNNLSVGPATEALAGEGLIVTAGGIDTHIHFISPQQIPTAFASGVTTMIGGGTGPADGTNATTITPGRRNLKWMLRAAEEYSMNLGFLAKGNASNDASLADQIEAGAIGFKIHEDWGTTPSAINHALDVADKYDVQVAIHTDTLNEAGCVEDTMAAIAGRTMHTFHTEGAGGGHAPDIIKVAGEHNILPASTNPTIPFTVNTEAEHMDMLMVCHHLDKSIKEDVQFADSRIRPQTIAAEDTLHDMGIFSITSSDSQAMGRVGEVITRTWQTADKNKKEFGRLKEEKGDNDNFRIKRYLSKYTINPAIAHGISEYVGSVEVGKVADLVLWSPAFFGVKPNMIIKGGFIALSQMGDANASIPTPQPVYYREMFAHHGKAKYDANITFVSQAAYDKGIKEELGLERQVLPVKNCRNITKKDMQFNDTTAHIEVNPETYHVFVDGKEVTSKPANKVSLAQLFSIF
# T2 sequence (P69996 whole entry): as above
# T2 sequence (P14916 whole entry, further chain): as the sequence (P14916 whole entry) above
compound,measurement,setting,value
NC(=S)NC(=O)Cc1ccc(Cl)cc1 [b19],IC50,"[1]; IC50 Extracted urease, extracted H. pylori urease",160 ± 50 nM
same,"fold more potent than AHA, extracted urease",[1]; ratio of IC50 values vs AHA,170 fold
same,IC50,[2],3860 ± 100 nM
same,"fold more potent than AHA, urease in intact cell",[2]; ratio of IC50 values vs AHA,44 fold
same,MIC,"[3]; pH=4.0, read-out: MIC pH=4.0",0.5 µM
same,MIC,"[3]; pH=7.0, read-out: MIC pH=7.0",32 µM
same,Kd,[4],4.5 ± 0.16 nM
same,koff,[4]; SPR,1.73 × 10^–3 ± 2.57 × 10^–5 s^–1
same,kon,[4]; pH 7.4,3.82e+06 M⁻¹ s⁻¹
same,koff,"[4]; pH 7.4, SPR",0.0016 s⁻¹
same,Ki,[5],40 nM
same,Type of inhibition,[5]; Jack bean urease,Reversible
same,preincubation-time dependence of urease inhibition,[5]; different preincubation times and concentrations,time-independent
same,Ki',[5]; dissociation constant of urease-urea-inhibitor complex,160 nM
same,inhibition mechanism,[5]; from Ki and Ki',mixed competitive
same,"viability at 72 h, 25 µg/mL",[6],> 93%
same,"viability at 72 h, 25 µg/mL",[7],> 93%
same,melting point,,184.1 to 186.6 °C

# Reference: paper PMC6968641, “N-monoarylacetothioureas as potent urease inhibitors: synthesis, SAR, and biological evaluation” (Journal of Enzyme Inhibition and Medicinal Chemistry, 2019)
